Reference: DBAASP
Converted amounts (≈) assume the structure as drawn. One block for each compound: values may come before it.

Key:
Assay in all cases: ≥ marks a high value that may be exact or a test limit, other limits are often not marked, values filed in µg/mL are converted to µM
[1] = test system: Mycobacterium tuberculosis WXY
[2] = test system: Mycobacterium tuberculosis H37Rv
[3] = test system: Mycobacterium tuberculosis CAS3
[4] = test system: Escherichia coli CIP 54.8T
[5] = test system: Bacillus subtilis VKM B-501
Escherichia coli C600 = test system: Escherichia coli C600
[6] = test system: Staphylococcus aureus 209P
[7] = test system: Staphylococcus aureus ATCC 25923
[8] = test system: Listeria monocytogenes EGD
[9] = test system: Escherichia coli ATCC 25922
[10] = test system: Pseudomonas aeruginosa ATCC 27853
[11] = test system: Legionella pneumophila Lens
Enterococcus faecalis VR = test system: Enterococcus faecalis VR
[12] = test system: Staphylococcus aureus ATCC 43300
[13] = test system: Staphylococcus aureus ATCC 29213
Pseudomonas aeruginosa = test system: Pseudomonas aeruginosa
[14] = test system: Escherichia coli ATCC BAA-2523
Enterococcus faecalis = test system: Enterococcus faecalis
[15] = test system: Enterococcus faecalis ATCC 51575
[16] = test system: Staphylococcus aureus KCTC 1621
[17] = test system: Bacillus subtilis KCTC 3068
[18] = test system: Acinetobacter baumannii KCCM 1053
[19] = test system: Salmonella typhimurium KCTC 1926
[20] = test system: Staphylococcus epidermidis KCTC 1917
[21] = test system: Staphylococcus aureus KCCM 40510
[22] = test system: Enterococcus faecalis KCCM 11814
[23] = test system: Acinetobacter baumannii ATCC BAA-1605
[24] = test system: Escherichia coli KCTC 1682
[25] = test system: Pseudomonas aeruginosa KCTC 1637
[26] = test system: Pseudomonas aeruginosa CCARM 2180
Acinetobacter baumannii = test system: Acinetobacter baumannii
Enterococcus sp. = test system: Enterococcus sp.
Staphylococcus aureus = test system: Staphylococcus aureus
[27] = test system: Staphylococcus epidermidis
Klebsiella pneumoniae = test system: Klebsiella pneumoniae
Escherichia coli ESBL = test system: Escherichia coli ESBL

Structure (SMILES): CC(C)C[C@H](NC(=O)[C@H](CC(C)C)NC(=O)[C@H](CCCCN)NC(=O)[C@H](CCCCN)NC(=O)[C@@H](NC(=O)[C@H](C)N)C(C)C)C(=O)N[C@@H](C)C(=O)N[C@@H](C)C(=O)N[C@@H](C)C(=O)N[C@@H](CO)C(=O)N[C@@H](C)C(=O)N[C@@H](C)C(=O)N[C@@H](C)C(=O)N[C@@H](CCCCN)C(=O)N[C@@H](CCCCN)C(=O)O [AVKKLLAAASAAAKK]
- MIC [1]: ≥ 139 µM
- MIC [2]: ≥ 139 µM
- MIC [3]: ≥ 139 µM

Structure (SMILES): CC[C@H](C)[C@H](NC(=O)[C@H](Cc1cnc[nH]1)NC(=O)[C@H](Cc1cnc[nH]1)NC(=O)[C@H](Cc1ccccc1)NC(=O)[C@@H](NC(=O)[C@H](CCCCN)NC(=O)[C@@H](NC(=O)[C@@H](N)Cc1ccccc1)[C@@H](C)CC)[C@@H](C)CC)C(=O)N[C@@H](Cc1ccccc1)C(=O)N[C@@H](CCCCN)C(=O)NCC(=O)N[C@@H](CC(N)=O)C(=O)N1CCC[C@H]1C(=O)N[C@@H](CCCCN)C(=O)N[C@@H](Cc1ccccc1)C(=O)N[C@@H](CO)C(=O)N[C@H](C(=O)N[C@H](C(=O)N[C@@H](CCCCN)C(=O)O)[C@@H](C)CC)[C@@H](C)CC [FIKIFHHIFKGNPKFSIIK]
- MIC [4]: ≥ 150 µM

Structure (SMILES): CC[C@H](C)[C@H](NC(=O)[C@H](C)NC(=O)CNC(=O)[C@H](CCCCN)NC(=O)[C@@H](NC(=O)[C@H](CC(C)C)NC(=O)[C@H](C)NC(=O)[C@H](CC(C)C)NC(=O)[C@@H](NC(=O)[C@@H](NC(=O)[C@H](Cc1ccc(O)cc1)NC(=O)[C@@H](NC(=O)[C@H](Cc1ccccc1)NC(=O)[C@H](CCCCN)NC(=O)[C@H](CCCCN)NC(=O)[C@@H](N)CCCCN)[C@@H](C)CC)[C@@H](C)CC)C(C)C)[C@@H](C)CC)C(=O)N[C@H](C(=O)N[C@@H](CCCCN)C(=O)N[C@@H](CCCCN)C(=O)NCC(N)=O)[C@@H](C)CC [KKKFIYIVLALIKGAIIKKG]
- MIC [7]: 64 µM (≈ 144 µg/mL)
- MIC [8]: ≥ 32 µM
- MIC [9]: 32 µM (≈ 71.8 µg/mL)
- MIC [10]: 64 µM (≈ 144 µg/mL)

Structure (SMILES): CC[C@H](C)[C@H](NC(=O)[C@H](CC(C)C)NC(=O)[C@H](CCCCN)NC(=O)[C@H](CCCCN)NC(=O)[C@@H](NC(=O)[C@@H](NC(=O)[C@H](CCC(=O)O)NC(=O)[C@@H](NC(=O)[C@@H](NC(=O)[C@H](CCCCN)NC(=O)[C@H](C)NC(=O)[C@@H](NC(=O)[C@@H](NC(=O)[C@H](CC(=O)O)NC(=O)[C@H](C)NC(=O)[C@@H](N)CCSC)C(C)C)[C@@H](C)CC)[C@@H](C)CC)C(C)C)[C@@H](C)CC)C(C)C)C(=O)N[C@@H](CC(=O)O)C(=O)N[C@@H](CCC(N)=O)C(=O)N[C@@H](Cc1ccccc1)C(=O)N[C@H](C(=O)N[C@@H](CCC(N)=O)C(=O)N[C@@H](CCCCN)C(=O)O)[C@@H](C)O [MADVIAKIVEIVKKLIDQFTQK]
- MIC [11]: 0.62 µM (≈ 1.57 µg/mL)

Structure (SMILES): CC[C@H](C)[C@@H]1NC(=O)[C@H](CCCN=C(N)N)NC(=O)[C@@H](NC(=O)[C@H](CC(C)C)NC(=O)[C@@H](N)CCCN=C(N)N)CSSC[C@@H](C(=O)N[C@@H](CCCN=C(N)N)C(=O)O)NC(=O)[C@H](Cc2c[nH]c3ccccc23)NC(=O)[C@H](CCCN=C(N)N)NC(=O)[C@H]([C@@H](C)CC)NC(=O)[C@H](Cc2c[nH]c3ccccc23)NC(=O)[C@H](Cc2c[nH]c3ccccc23)NC1=O [RLCRIWWIRWCR]
- MIC [15]: 11.3 µM (≈ 19.7 µg/mL)
- MIC [16]: 16 µM (≈ 27.9 µg/mL)
- MIC [17]: ≥ 32 µM
- MIC [18]: 22.6 µM (≈ 39.5 µg/mL)
- MIC [19]: 8 µM (≈ 14 µg/mL)
- MIC [20]: 8 µM (≈ 14 µg/mL)
- MIC [21]: 22.6 µM (≈ 39.5 µg/mL)
- MIC [22]: ≥ 32 µM
- MIC [23]: ≥ 64 µM
- MIC [24]: 2.83 µM (≈ 4.94 µg/mL)
- MIC [25]: 4 µM (≈ 6.98 µg/mL)
- MIC [26]: ≥ 64 µM

More lines, now with the values ahead:

- MIC [5]: 0.7 µM (≈ 2.16 µg/mL)
- MIC (Escherichia coli C600): 1.5 µM (≈ 4.62 µg/mL)
- MIC [6]: 3 µM (≈ 9.24 µg/mL)
Structure (SMILES): CSCC[C@H](NC(=O)[C@H](CCCCN)NC(=O)CN)C(=O)N[C@@H](CCCCN)C(=O)N[C@@H](CCC(=O)O)C(=O)N[C@@H](Cc1ccc(O)cc1)C(=O)N[C@@H](Cc1ccccc1)C(=O)N[C@@H](CCCCN)C(=O)N[C@@H](CCCCN)C(=O)N[C@@H](Cc1ccccc1)C(=O)NCC(=O)N[C@@H](C)C(=O)N[C@@H](CO)C(=O)N[C@@H](Cc1ccccc1)C(=O)N[C@@H](CCCCN)C(=O)N[C@@H](CCCN=C(N)N)C(=O)N[C@@H](CCCN=C(N)N)C(=O)N[C@@H](Cc1ccccc1)C(=O)N[C@@H](C)C(=O)N[C@@H](CC(N)=O)C(=O)N[C@@H](CC(C)C)C(=O)N[C@@H](CCCCN)C(=O)N[C@@H](CCCCN)C(=O)N[C@@H](CCCN=C(N)N)C(=O)N[C@@H](CC(C)C)C(N)=O [GKMKEYFKKFGASFKRRFANLKKRL]

- MIC (Enterococcus faecalis VR): ≥ 128 µM
- MIC [12]: 128 µM (≈ 301 µg/mL)
- MIC [13]: 128 µM (≈ 301 µg/mL)
- MIC (Pseudomonas aeruginosa): > 128 µM
- MIC [9]: > 128 µM
- MIC [14]: ≥ 128 µM
- MIC (Enterococcus faecalis): ≥ 128 µM
- MIC [10]: > 128 µM
Structure (SMILES): CC(C)C[C@H](NC(=O)[C@@H](N)CCC(N)=O)C(=O)NCC(=O)N[C@@H](CCCCN)C(=O)N[C@@H](CCCCN)C(=O)N[C@@H](CCCCN)C(=O)N[C@@H](Cc1cnc[nH]1)C(=O)N[C@@H](CCCN=C(N)N)C(=O)N[C@@H](CCCN=C(N)N)C(=O)N[C@@H](CCCN=C(N)N)C(=O)N1CCC[C@H]1C(=O)N[C@@H](CO)C(=O)N[C@@H](CCCCN)C(=O)N[C@@H](CCCCN)C(=O)N[C@@H](CCCCN)C(=O)N[C@@H](CCCN=C(N)N)C(=O)N[C@@H](Cc1cnc[nH]1)C(=O)N[C@@H](Cc1c[nH]c2ccccc12)C(=O)O [QLGKKKHRRRPSKKKRHW]

- MIC (Acinetobacter baumannii): 2.47 µM (≈ 6.25 µg/mL)
- MIC (Enterococcus sp.): 9.87 µM (≈ 25 µg/mL)
- MIC (Staphylococcus aureus): 9.87 µM (≈ 25 µg/mL)
- MIC [27]: 9.87 µM (≈ 25 µg/mL)
- MIC (Klebsiella pneumoniae): 4.93 µM (≈ 12.5 µg/mL)
- MIC (Pseudomonas aeruginosa): 4.93 µM (≈ 12.5 µg/mL)
- MIC (Escherichia coli ESBL): 2.47 µM (≈ 6.25 µg/mL)
Structure (SMILES): CC(C)C[C@H](NC(=O)CNC(=O)[C@H](CCCCN)NC(=O)[C@@H](NC(=O)[C@H](CCCCN)NC(=O)[C@H](CCCCN)NC(=O)[C@@H](NC(=O)[C@@H](NC(=O)[C@H](CCCCN)NC(=O)[C@@H](NC(=O)[C@H](CCCCN)NC(=O)CNC(=O)[C@H](CCCN=C(N)N)NC(=O)[C@H](Cc1ccc(O)cc1)NC(=O)[C@H](CC(C)C)NC(=O)[C@H](CCCCN)NC(=O)CNC(=O)[C@H](Cc1ccccc1)NC(=O)[C@@H](N)Cc1c[nH]c2ccccc12)[C@@H](C)O)C(C)C)C(C)C)C(C)C)C(=O)N[C@@H](CC(C)C)C(=O)N[C@@H](CCCCN)C(=O)NCC(=O)O [WFGKLYRGKTKVVKKVKGLLKG]
